The data set can be described thus: Stability of compound (observation). Format: physicochemical. As to conditions: must be used immediately in coupling with polymer.

For the compound `CC(=S)NC1C(O)CC(OCc2ccc(NC(=S)CN)cc2)(C(=O)O)OC1C(O)C(O)CO` [VIII, p-thioglycylamidobenzyl 3,5-dideoxy-5-thioacetamido-α-D-glycero-D-galacto-nonulopyranosidonic acid], the Stability result is “unstable”.

The record behind these values is patent US5571836A, “Viral attachment inhibitors” (priority 1995, dated 1996).
